Reference: PubChem BioAssay AID330 (DTP/NCI, 2004)
“And” between values parts separate entries of the source, which are not always exact repeats. Equal values may be shown once. Inconclusive results and toxic doses are left out.

Tested on: P388 leukemia ip, CD2F1 mice, survival T/C
Test: NCI In Vivo Anticancer Drug Screen. Data for tumor model P388 Leukemia (intraperitoneal) in CD2F1 (CDF1) mice
Settings: endpoint: median survival time, higher = longer survival
In short: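 Mice carrying the transplanted tumor received test compound or vehicle. Survival was recorded in each group, and the value is the treated-group measurement divided by that of the vehicle-treated control group.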

[1] = dose: 50.0 mg/kg/injection, schedule: Q01DX009 (ip), vehicle: Klucel (hydroxypropylcellulose) (HPC)
[2] = dose: 100.0 mg/kg/injection, schedule: Q01DX009 (ip), vehicle: Klucel (hydroxypropylcellulose) (HPC)
[3] = dose: 200.0 mg/kg/injection, schedule: Q01DX009 (ip), vehicle: Klucel (hydroxypropylcellulose) (HPC)
[4] = dose: 12.5 mg/kg/injection, schedule: Q01DX005 (ip), vehicle: Klucel (hydroxypropylcellulose) (HPC)
[5] = dose: 25.0 mg/kg/injection, schedule: Q01DX009 (ip), vehicle: saline with Tween-80
[6] = dose: 50.0 mg/kg/injection, schedule: Q01DX009 (ip), vehicle: saline with Tween-80
[7] = dose: 100.0 mg/kg/injection, schedule: Q01DX009 (ip), vehicle: saline with Tween-80
[8] = dose: 60.0 mg/kg/injection, schedule: Q01DX005 (ip), vehicle: saline with Tween-80
[9] = dose: 120.0 mg/kg/injection, schedule: Q01DX005 (ip), vehicle: saline with Tween-80
[10] = dose: 3.12 mg/kg/injection, schedule: Q01DX005 (ip), vehicle: saline
[11] = dose: 100.0 mg/kg/injection, schedule: Q04DX003 (ip), vehicle: saline
[12] = dose: 200.0 mg/kg/injection, schedule: Q04DX003 (ip), vehicle: saline
[13] = dose: 400.0 mg/kg/injection, schedule: Q04DX003 (ip), vehicle: saline
[14] = dose: 240.0 mg/kg/injection, schedule: Q01DX005 (ip), vehicle: saline with Tween-80
[15] = dose: 50.0 mg/kg/injection, schedule: Q01DX009 (ip), vehicle: saline
[16] = dose: 100.0 mg/kg/injection, schedule: Q01DX009 (ip), vehicle: saline
[17] = dose: 200.0 mg/kg/injection, schedule: Q01DX009 (ip), vehicle: saline
[18] = dose: 25.0 mg/kg/injection, schedule: Q01DX005 (ip), vehicle: Klucel (hydroxypropylcellulose) (HPC)
[19] = dose: 50.0 mg/kg/injection, schedule: Q01DX005 (ip), vehicle: Klucel (hydroxypropylcellulose) (HPC)

`CC(=O)C1=C(O)/C(=C\C=C\c2ccccc2)OC1=O` was tested, and the T/C [1] was 111 % of control, the T/C [2] was 104 % of control and the T/C [3] was 118 % of control.

`CCC[C@H]1N=C(OCC)N[C@@H]1CCC` was tested, and the T/C (dose: 6.25 mg/kg/injection, schedule: Q01DX005 (ip), vehicle: Klucel (hydroxypropylcellulose) (HPC)) was 108 % of control and the T/C [4] was 117 % of control.

For `CCOc1ccc2nc(SCCl)sc2c1`, the T/C [5] was 101 % of control, the T/C [6] was 99 % of control and the T/C [7] was 91 % of control.

`CCOC(=O)c1cc(/C=C/c2ccc(Cl)cc2Cl)on1` was tested, and the T/C [8] was 100 % of control and the T/C [9] was 90 % of control.

`CC1=C(c2ccccc2)OC(c2ccccc2)=C[P+]1(c1ccccc1)c1ccccc1` was tested, and the T/C (dose: 1.56 mg/kg/injection, schedule: Q01DX005 (ip), vehicle: saline) was 105 % of control and the T/C [10] was 110 % of control.

`CCS(=O)(=O)OCCF` was tested, and the T/C (dose: 0.78 mg/kg/injection, schedule: Q01DX009 (ip), vehicle: saline with Tween-80) was 106 % of control, the T/C (dose: 1.56 mg/kg/injection, schedule: Q01DX009 (ip), vehicle: saline with Tween-80) was 111 % of control and the T/C (dose: 3.12 mg/kg/injection, schedule: Q01DX009 (ip), vehicle: saline with Tween-80) was 106 % of control and 91 % of control.

For `Cc1ccc(-c2cc(C(=O)NN)c(C#N)c(=O)[nH]2)cc1`, the T/C (dose: 60.0 mg/kg/injection, schedule: Q01DX005 (ip), vehicle: suspension in saline) was 97 % of control, the T/C (dose: 120.0 mg/kg/injection, schedule: Q01DX005 (ip), vehicle: suspension in saline) was 100 % of control and the T/C (dose: 240.0 mg/kg/injection, schedule: Q01DX005 (ip), vehicle: suspension in saline) was 100 % of control.

`O=[N+]([O-])CC1CCCCC1O` (centres undefined) was tested, and the T/C (dose: 6.25 mg/kg/injection, schedule: Q01DX009 (ip), vehicle: saline with Tween-80) was 100 % of control, the T/C (dose: 12.5 mg/kg/injection, schedule: Q01DX009 (ip), vehicle: saline with Tween-80) was 100 % of control and the T/C [5] was 90 % of control.

With `O=c1c2c(nc3n1CCSCC3)NCCC2` the T/C (dose: 100.0 mg/kg/injection, schedule: Q04DX002 (ip), vehicle: Klucel (hydroxypropylcellulose) (HPC)) was 104 % of control, the T/C (dose: 200.0 mg/kg/injection, schedule: Q04DX002 (ip), vehicle: Klucel (hydroxypropylcellulose) (HPC)) was 98 % of control and the T/C (dose: 400.0 mg/kg/injection, schedule: Q04DX002 (ip), vehicle: Klucel (hydroxypropylcellulose) (HPC)) was 100 % of control.

For `CC(=O)C/C(=N\NS(=O)(=O)c1cc(Cl)c(Cl)cc1Cl)c1ccc([N+](=O)[O-])cc1`, the T/C [11] was 99 % of control, the T/C [12] was 100 % of control and the T/C [13] was 97 % of control.

`O=[N+]([O-])c1cccnc1N=Nc1c(O)[nH]c2ccccc12` was tested, and the T/C [8] was 100 % of control, the T/C [9] was 101 % of control and the T/C [14] was 110 % of control.

For `CC(C)N1CCC(OC(=O)Nc2ccccc2)C1` (centres undefined), the T/C [1] was 100 % of control, the T/C [2] was 99 % of control and the T/C [3] was 98 % of control.

`CC(=O)N/C(=C\c1ccc([N+](=O)[O-])cc1)c1nc2ccccc2s1` was tested, and the T/C [8] was 110 % of control, the T/C [9] was 107 % of control and the T/C [14] was 113 % of control.

In the case of `COC1=CC(=Nc2ccc(N(C)C)cc2)C=CC1=O`, the T/C [10] is reported as 106 % of control, the T/C (dose: 6.25 mg/kg/injection, schedule: Q01DX005 (ip), vehicle: saline) is reported as 109 % of control and the T/C (dose: 12.5 mg/kg/injection, schedule: Q01DX005 (ip), vehicle: saline) is reported as 106 % of control.

With `COc1ccc(-c2c(C#N)cnc(C)c2C)c(OCc2ccccc2)c1OC` the T/C (dose: 12.5 mg/kg/injection, schedule: Q01DX009 (ip), vehicle: other) was 106 % of control, the T/C (dose: 25.0 mg/kg/injection, schedule: Q01DX009 (ip), vehicle: other) was 101 % of control and the T/C (dose: 50.0 mg/kg/injection, schedule: Q01DX009 (ip), vehicle: other) was 105 % of control. The T/C (dose: 100.0 mg/kg/injection, schedule: Q01DX009 (ip), vehicle: other) was 98 % of control and the T/C (dose: 200.0 mg/kg/injection, schedule: Q01DX009 (ip), vehicle: other) was 92 % of control.

For `Cc1nnn(NC(=O)Cc2ccccc2)c1C`, the T/C (dose: 100.0 mg/kg/injection, schedule: Q01DX001 (ip), vehicle: Klucel (hydroxypropylcellulose) (HPC)) was 98 % of control, the T/C (dose: 200.0 mg/kg/injection, schedule: Q01DX001 (ip), vehicle: Klucel (hydroxypropylcellulose) (HPC)) was 99 % of control and the T/C (dose: 400.0 mg/kg/injection, schedule: Q01DX001 (ip), vehicle: Klucel (hydroxypropylcellulose) (HPC)) was 99 % of control.

With `CCOCCC(N=NC(=S)NNC)c1ccccc1` (centres undefined) the T/C (dose: 100.0 mg/kg/injection, schedule: Q01DX001 (ip), vehicle: saline) was 100 % of control, the T/C (dose: 200.0 mg/kg/injection, schedule: Q01DX001 (ip), vehicle: saline) was 94 % of control and the T/C (dose: 400.0 mg/kg/injection, schedule: Q01DX001 (ip), vehicle: saline) was 93 % of control.

With `COc1cc(N(C)C)c(OC)cc1/C=C\c1ccnc2ccccc12` the T/C (dose: 100.0 mg/kg/injection, schedule: Q04DX003 (ip), vehicle: saline with Tween-80) was 111 % of control.

With `O=C(/C=C\c1ccccc1)c1ccccc1` the T/C (dose: 100.0 mg/kg/injection, schedule: Q04DX002 (ip), vehicle: saline) was 112 % of control, the T/C (dose: 200.0 mg/kg/injection, schedule: Q04DX002 (ip), vehicle: saline) was 110 % of control and the T/C (dose: 400.0 mg/kg/injection, schedule: Q04DX002 (ip), vehicle: saline) was 102 % of control.

For `COc1cccc2c1C(=N)c1c(O)c3c(c(O)c1C2=O)CC(O)(C(=O)CO)CC3OC1CC(N2CCOCC2C#N)C(O)C(C)O1` (centres undefined), the T/C (dose: 0.25 mg/kg/injection, schedule: Q04DX003 (ip), vehicle: saline) was 117 % of control, the T/C (dose: 0.5 mg/kg/injection, schedule: Q04DX003 (ip), vehicle: saline) was 157 % of control and the T/C (dose: 1.0 mg/kg/injection, schedule: Q04DX003 (ip), vehicle: saline) was 111 % of control and 97 % of control.

In the case of `Nc1ncnn1Cc1ccccc1`, the T/C [5] is reported as 104 % of control, the T/C [6] is reported as 100 % of control and the T/C [7] is reported as 101 % of control. The T/C (dose: 200.0 mg/kg/injection, schedule: Q01DX009 (ip), vehicle: saline with Tween-80) was 102 % of control.

In the case of `NC(CSCCSCC(N)C(=O)O)C(=O)O` (centres undefined), the T/C [1] is reported as 110 % of control, the T/C [2] is reported as 98 % of control and the T/C [3] is reported as 104 % of control.

With `C[CH2][Ge]([CH2]C)[CH2]C.C[CH2][Ge]([Cl])[CH2]C` the T/C [15] was 100 % of control, the T/C [16] was 100 % of control and the T/C [17] was 91 % of control.

With `OC1OC(Cn2c3ccccc3c3ccccc32)C(O)C(O)C1O` (centres undefined) the T/C (dose: 50.0 mg/kg/injection, schedule: Q01DX001 (ip), vehicle: saline with Tween-80) was 100 % of control, the T/C (dose: 100.0 mg/kg/injection, schedule: Q01DX001 (ip), vehicle: saline with Tween-80) was 107 % of control and the T/C (dose: 200.0 mg/kg/injection, schedule: Q01DX001 (ip), vehicle: saline with Tween-80) was 114 % of control.

In the case of `Cc1ccc2nc(-c3ccc4nc(-c5ccc(N=Nc6ccc(-c7nc8ccc(-c9nc%10ccc(C)c(S(=O)(=O)O)c%10s9)cc8s7)cc6)cc5)sc4c3)sc2c1S(=O)(=O)O`, the T/C [15] is reported as 113 % of control and 116 % of control, the T/C [16] is reported as 116 % of control and 121 % of control and the T/C [17] is reported as 112 % of control and 123 % of control.

With `[Cl][Pd][Cl].[NH-]C(CC(N)=O)C(=O)O` (centres undefined) the T/C [4] was 101 % of control, the T/C [18] was 95 % of control and the T/C [19] was 100 % of control and 113 % of control.

`CC(=O)N1c2ccccc2C(O)C1OC(=O)c1cccc(Cl)c1` (centres undefined) was tested, and the T/C [8] was 100 % of control, the T/C [9] was 103 % of control and the T/C [14] was 89 % of control.

`CCCN(CCC)CN1C(=O)c2ccccc2C1=O` was tested, and the T/C [18] was 106 % of control and 92 % of control, the T/C [19] was 100 % of control and 105 % of control and 106 % of control and the T/C (dose: 100.0 mg/kg/injection, schedule: Q01DX005 (ip), vehicle: Klucel (hydroxypropylcellulose) (HPC)) was 109 % of control and 89 % of control and 95 % of control. For the same molecule, the T/C (dose: 200.0 mg/kg/injection, schedule: Q01DX005 (ip), vehicle: Klucel (hydroxypropylcellulose) (HPC)) was 99 % of control and 108 % of control.

With `Cc1ccccc1Nc1nc(-c2ccccc2)nc(N)c1N=O` the T/C [11] was 100 % of control, the T/C [12] was 98 % of control and the T/C [13] was 98 % of control.

`NC(CCCC(N)C(=O)c1ccccc1)C(=O)c1ccccc1` (centres undefined) was tested, and the T/C [8] was 92 % of control, the T/C [9] was 91 % of control and the T/C [14] was 92 % of control.
